Assay results taken from article PMC8480901 (PLoS ONE, 2021).
“And” between values parts separate entries of the source, which are not always exact repeats. Equal values may be shown once.

System: J774.2 mouse macrophages
Test: LPS-induced cytokine and chemokine levels in J774.2 mouse macrophage cell supernatant (ELISA)
Format: cell-based
Details: for CXCL1 % reduction / CXCL1 [pg/mL] Mean / CXCL2 % reduction / CXCL2 [pg/mL] Mean / MMP9 % reduction / MMP9 [pg/mL] Mean / CXCL2 / MMP9: J774.2 cells; for CXCL1 % reduction / CXCL1 [pg/mL] Mean / CXCL2 % reduction / CXCL2 [pg/mL] Mean / MMP9 % reduction / MMP9 [pg/mL] Mean / CCl2, % reduction / CCl2, Mean / GM-CSF % reduction / GM-CSF Mean / IL-1β % reduction / IL-1β Mean / IL-6 % reduction / IL-6 Mean / TNF-α % reduction / TNF-α Mean / CCl2 / CXCL1 / GM-CSF / IL-1β / IL-6 / TNF-α / CXCL2 / MMP9: LPS; for CCl2, % reduction / CCl2, Mean / GM-CSF % reduction / GM-CSF Mean / IL-1β % reduction / IL-1β Mean / IL-6 % reduction / IL-6 Mean / TNF-α % reduction / TNF-α Mean / CCl2 / CXCL1 / GM-CSF / IL-1β / IL-6 / TNF-α: J774.2 supernatant; for CCl2 / CXCL1 / GM-CSF / IL-1β / IL-6 / TNF-α / CXCL2 / MMP9: individual replicate

## C=C[C@]1(C)C[C@@H](OC(=O)CS[C@@H]2CC[C@@H](N)C[C@H]2O)[C@]2(C)[C@H](C)CC[C@]3(CCC(=O)[C@H]32)[C@@H](C)[C@@H]1O [Lefamulin]
Compound 0.03 µM
  CXCL1 % reduction: -4.29%
  CXCL1 [pg/mL] Mean: 27 pg/mL
  CXCL2 % reduction: 3%
  CXCL2 [pg/mL] Mean: 31653 pg/mL
  MMP9 % reduction: 2.7%
  MMP9 [pg/mL] Mean: 939 pg/mL
  CXCL2: 31852.1 pg/mL and 31453.1 pg/mL
  MMP9: 895.68 pg/mL and 982.757 pg/mL
Compound 0.1 µM
  CXCL1 % reduction: 0.477%
  CXCL1 [pg/mL] Mean: 25 pg/mL
  CXCL2 % reduction: 7%
  CXCL2 [pg/mL] Mean: 30382 pg/mL
  MMP9 % reduction: 16%
  MMP9 [pg/mL] Mean: 819 pg/mL
  CXCL2: 30865.4 pg/mL and 29898.5 pg/mL
  MMP9: 770.463 pg/mL and 867.766 pg/mL
Compound 0.3 µM
  CXCL1 % reduction: -4.29%
  CXCL1 [pg/mL] Mean: 27 pg/mL
  CXCL2 % reduction: 0.626%
  CXCL2 [pg/mL] Mean: 32419 pg/mL
  MMP9 % reduction: 14%
  MMP9 [pg/mL] Mean: 840 pg/mL
  CXCL2: 32714.1 pg/mL and 32124.3 pg/mL
  MMP9: 798.08 pg/mL and 882.55 pg/mL
Compound 1 µM
  CXCL1 % reduction: -0.703%
  CXCL1 [pg/mL] Mean: 26 pg/mL
  CXCL2 % reduction: -10%
  CXCL2 [pg/mL] Mean: 35898 pg/mL
  MMP9 % reduction: 2.38%
  MMP9 [pg/mL] Mean: 942 pg/mL
  CXCL2: 35082.5 pg/mL and 36713.0 pg/mL
  MMP9: 879.359 pg/mL and 1004.8 pg/mL
Compound 3 µM
  CXCL1 % reduction: -7.61%
  CXCL1 [pg/mL] Mean: 28 pg/mL
  CXCL2 % reduction: -7%
  CXCL2 [pg/mL] Mean: 34917 pg/mL
  MMP9 % reduction: 7%
  MMP9 [pg/mL] Mean: 900 pg/mL
  CXCL2: 37039.4 pg/mL and 32794.8 pg/mL
  MMP9: 913.107 pg/mL and 886.534 pg/mL
Compound 10 µM
  CXCL1 % reduction: -36%
  CXCL1 [pg/mL] Mean: 35 pg/mL
  CXCL2 % reduction: -7%
  CXCL2 [pg/mL] Mean: 34821 pg/mL
  MMP9 % reduction: 14%
  MMP9 [pg/mL] Mean: 838 pg/mL
  CXCL2: 36052.8 pg/mL and 33589.2 pg/mL
  MMP9: 894.885 pg/mL and 781.214 pg/mL
Compound 30 µM
  CXCL1 % reduction: -238%
  CXCL1 [pg/mL] Mean: 87 pg/mL
  CXCL2 % reduction: -16%
  CXCL2 [pg/mL] Mean: 37862 pg/mL
  MMP9 % reduction: 60%
  MMP9 [pg/mL] Mean: 423 pg/mL
  CXCL2: 37378.3 pg/mL and 38345.7 pg/mL
  MMP9: 446.696 pg/mL and 398.398 pg/mL
Compound 100 µM
  CXCL1 % reduction: -827%
  CXCL1 [pg/mL] Mean: 237 pg/mL
  CXCL2 % reduction: -16%
  CXCL2 [pg/mL] Mean: 37744 pg/mL
  MMP9 % reduction: 96%
  MMP9 [pg/mL] Mean: 91 pg/mL
  CXCL2: 37906.2 pg/mL and 37582.2 pg/mL
  MMP9: 104.703 pg/mL and 78.135 pg/mL
J774.2 macrophages
  IL-6 and IL-1β levels in supernatant: trend toward reduction
J774.2 mouse macrophages, concentrations tested (0.03 to 10 μM shown)
  levels of the measured LPS-induced cytokines, chemokines, or MMP-9 in supernatants: little to no reduction
0.03 µM
  CCl2, % reduction: 1.79%
  CCl2, Mean: 35400 pg/mL
  GM-CSF % reduction: 52%
  GM-CSF Mean: 672 pg/mL
  IL-1β % reduction: -26%
  IL-1β Mean: 241 pg/mL
  IL-6 % reduction: -14%
  IL-6 Mean: 88112 pg/mL
  TNF-α % reduction: -16%
  TNF-α Mean: 1587 pg/mL
  CCl2: 33453 pg/mL and 37346.9 pg/mL
  CXCL1: 25.7 pg/mL and 27.7 pg/mL
  GM-CSF: 625.6 pg/mL and 719.3 pg/mL
  IL-1β: 233.691 pg/mL and 247.723 pg/mL
  IL-6: 83483 pg/mL and 92741 pg/mL
  TNF-α: 1586.9 pg/mL and 1587.5 pg/mL
0.1 µM
  CCl2, % reduction: 8%
  CCl2, Mean: 33260 pg/mL
  GM-CSF % reduction: 50%
  GM-CSF Mean: 691 pg/mL
  IL-1β % reduction: -10%
  IL-1β Mean: 209 pg/mL
  IL-6 % reduction: -11%
  IL-6 Mean: 85917 pg/mL
  TNF-α % reduction: -16%
  TNF-α Mean: 1579 pg/mL
  CCl2: 30882.1 pg/mL and 35637.1 pg/mL
  CXCL1: 26.3 pg/mL and 24.7 pg/mL
  GM-CSF: 718.9 pg/mL and 663.8 pg/mL
  IL-1β: 208.032 pg/mL and 210.141 pg/mL
  IL-6: 86925 pg/mL and 84909 pg/mL
  TNF-α: 1571.9 pg/mL and 1586.9 pg/mL
0.3 µM
  CCl2, % reduction: 0.431%
  CCl2, Mean: 35870 pg/mL
  GM-CSF % reduction: 54%
  GM-CSF Mean: 647 pg/mL
  IL-1β % reduction: -6%
  IL-1β Mean: 202 pg/mL
  IL-6 % reduction: -13%
  IL-6 Mean: 87246 pg/mL
  TNF-α % reduction: -8.54%
  TNF-α Mean: 1483 pg/mL
  CCl2: 32973.5 pg/mL and 38766.3 pg/mL
  CXCL1: 24.9 pg/mL and 28.5 pg/mL
  GM-CSF: 644.4 pg/mL and 648.8 pg/mL
  IL-1β: 202.166 pg/mL and 201.189 pg/mL
  IL-6: 86199 pg/mL and 88294 pg/mL
  TNF-α: 1489.0 pg/mL and 1477.5 pg/mL
1 µM
  CCl2, % reduction: -9%
  CCl2, Mean: 39289 pg/mL
  GM-CSF % reduction: 60%
  GM-CSF Mean: 564 pg/mL
  IL-1β % reduction: -12%
  IL-1β Mean: 213 pg/mL
  IL-6 % reduction: 0.856%
  IL-6 Mean: 76721 pg/mL
  TNF-α % reduction: -11%
  TNF-α Mean: 1515 pg/mL
  CCl2: 38237.3 pg/mL and 40341.1 pg/mL
  CXCL1: 25.5 pg/mL and 26.1 pg/mL
  GM-CSF: 597.3 pg/mL and 530.6 pg/mL
  IL-1β: 223.29 pg/mL and 203.668 pg/mL
  IL-6: 75165 pg/mL and 78277 pg/mL
  TNF-α: 1503.6 pg/mL and 1525.6 pg/mL
3 µM
  CCl2, % reduction: -16%
  CCl2, Mean: 41389 pg/mL
  GM-CSF % reduction: 51%
  GM-CSF Mean: 681 pg/mL
  IL-1β % reduction: 12%
  IL-1β Mean: 168 pg/mL
  IL-6 % reduction: 0.505%
  IL-6 Mean: 76992 pg/mL
  TNF-α % reduction: -11%
  TNF-α Mean: 1517 pg/mL
  CCl2: 47549.1 pg/mL and 35229.8 pg/mL
  CXCL1: 27.5 pg/mL and 27.6 pg/mL
  GM-CSF: 645.8 pg/mL and 715.5 pg/mL
  IL-1β: 151.548 pg/mL and 184.21 pg/mL
  IL-6: 76816 pg/mL and 77168 pg/mL
  TNF-α: 1470.9 pg/mL and 1563.2 pg/mL
10 µM
  CCl2, % reduction: -20%
  CCl2, Mean: 42850 pg/mL
  GM-CSF % reduction: 25%
  GM-CSF Mean: 1034 pg/mL
  IL-1β % reduction: 16%
  IL-1β Mean: 160 pg/mL
  IL-6 % reduction: 11%
  IL-6 Mean: 69181 pg/mL
  TNF-α % reduction: -18%
  TNF-α Mean: 1616 pg/mL
  CCl2: 49014.8 pg/mL and 36684.7 pg/mL
  CXCL1: 35.9 pg/mL and 33.8 pg/mL
  GM-CSF: 1124.4 pg/mL and 943.6 pg/mL
  IL-1β: 178.332 pg/mL and 142.562 pg/mL
  IL-6: 73782 pg/mL and 64579 pg/mL
  TNF-α: 1578.1 pg/mL and 1653.1 pg/mL
30 µM
  CCl2, % reduction: -35%
  CCl2, Mean: 47970 pg/mL
  GM-CSF % reduction: -22%
  GM-CSF Mean: 1662 pg/mL
  IL-1β % reduction: 6%
  IL-1β Mean: 179 pg/mL
  IL-6 % reduction: 25%
  IL-6 Mean: 57940 pg/mL
  TNF-α % reduction: -31%
  TNF-α Mean: 1789 pg/mL
  CCl2: 51706.3 pg/mL and 44234.6 pg/mL
  CXCL1: 87.9 pg/mL and 85.2 pg/mL
  GM-CSF: 1753.9 pg/mL and 1570.0 pg/mL
  IL-1β: 181.679 pg/mL and 176.699 pg/mL
  IL-6: 56206 pg/mL and 59673 pg/mL
  TNF-α: 1766.5 pg/mL and 1811.5 pg/mL
100 µM
  CCl2, % reduction: 26%
  CCl2, Mean: 27179 pg/mL
  GM-CSF % reduction: -29%
  GM-CSF Mean: 1755 pg/mL
  IL-1β % reduction: -71%
  IL-1β Mean: 325 pg/mL
  IL-6 % reduction: 46%
  IL-6 Mean: 42097 pg/mL
  TNF-α % reduction: -249%
  TNF-α Mean: 4717 pg/mL
  CCl2: 26262.5 pg/mL and 28095.5 pg/mL
  CXCL1: 258.9 pg/mL and 215.6 pg/mL
  GM-CSF: 1833.3 pg/mL and 1676.9 pg/mL
  IL-1β: 330.455 pg/mL and 319.964 pg/mL
  IL-6: 40652 pg/mL and 43542 pg/mL
  TNF-α: 4063.6 pg/mL and 5370.1 pg/mL
